Data as given in US8383139B2 (Bayer CropScience AG, priority 2008, dated 2013).
Like-named read-outs stand apart in the source and are kept apart here.

Assay: log P by HPLC on reversed-phase columns (C 18), EEC Directive 79/831 Annex V.A8
Type: physicochemical
Conditions: for log p: [a] HPLC
[1] = reversed-phase C18 HPLC column, pH 2.3, pH 2.3, given in synthesis examples, read-out: log P (pH2.3)
[2] = acid region pH 2.3, 0.1% aqueous phosphoric acid and acetonitrile

Compound | log p [2] | further results
O=c1oc(C2(c3ccc(Cl)cc3)CC2)ns1 | – | chromatographic logP (pH 2.3, given in synthesis examples, read-out: log P (pH2.3)): 3.59
Cc1ccc(S(=O)(=O)c2nc(C3(c4ccc(Cl)cc4)CC3)ns2)cc1 [3-[1-(4-Chlorophenyl)cyclopropyl]-5-[(4-methylphenyl)sulphonyl]-1,2,4-thiadiazole] | – | chromatographic logP [1]: 4.97
Cc1cc(Oc2nc(C3(c4ccc(Cl)cc4)CC3)ns2)c(C)cc1N [4-({3-[1-(4-Chlorophenyl)cyclopropyl]-1,2,4-thiadiazol-5-yl}oxy)-2,5-dimethylaniline] | – | chromatographic logP [1]: 4.44
Cc1cc(Oc2nc(Cc3cccc(Cl)c3)ns2)c(C)cc1N [4-{[3-(3-Chlorobenzyl)-1,2,4-thiadiazol-5-yl]oxy}-2,5-dimethylaniline] | – | chromatographic logP [1]: 3.68
Cc1cc(Oc2nc(C(C)c3ccc(Cl)cc3)ns2)c(Cl)cc1N=CN1CCCCC1 (stereo not shown) [Example 21, 5-chloro-4-({3-[1-(4-chlorophenyl)ethyl]-1,2,4-thiadiazol-5-yl}oxy)-2-methyl-N-(piperidin-1-ylmethylidene)aniline] | – | chromatographic logP (reversed-phase C18 HPLC column, pH 2.3, [a] HPLC, acid region pH 2.3, 0.1% aqueous phosphoric acid and acetonitrile, read-out: log p): 2.67
Cc1cc(Oc2nc(Cc3ccc(Cl)cc3)ns2)c(C)cc1N=CN(C)CC(F)F [Example 53] | 2.18^[a] | –
CCN(C)C=Nc1cc(C)c(Oc2nc(Cc3ccc(F)c(F)c3)ns2)cc1C [Example 54] | 1.86^[a] | –
Cc1cc(Oc2nc(Cc3ccc(F)cc3F)ns2)c(C)cc1N=CN1CCCCC1 [Example 55] | 2.02^[a] | –
CCN(C)C=Nc1cc(C)c(Oc2nc(Cc3ccc(OC(F)(F)F)cc3)ns2)cc1C [Example 56] | 2.21^[a] | –
CCN(C)C=Nc1cc(C)c(Oc2nc(Cc3ccc(F)cc3)ns2)cc1C [Example 60] | 1.74^[a] | –
CCN(C)C=Nc1cc(C)c(Oc2nc(Cc3ccccc3Cl)ns2)cc1C [Example 61] | 1.97^[a] | –
CCN(C)C=Nc1cc(C)c(Oc2nc(Cc3ccc([N+](=O)[O-])cc3)ns2)cc1C [Example 64] | 2.11^[a] | –
CCN(C)C=Nc1cc(C)c(Oc2nc(Cc3cccc(Br)c3)ns2)cc1C [Example 65] | 2.38^[a] | –
CCN(C)C=Nc1cc(C)c(Oc2nc(Cc3cc(F)ccc3F)ns2)cc1C [Example 67] | 1.66^[a] | –
CCN(C)C=Nc1cc(C)c(Oc2nc(Cc3ccc(C#N)cc3)ns2)cc1C [Example 69] | 1.63^[a] | –
CCN(C)C=Nc1cc(C)c(Oc2nc(Cc3ccc(C(F)(F)F)cc3)ns2)cc1C [Example 71] | 2.29^[a] | –
CCN(C)C=Nc1cc(C)c(Oc2nc(Cc3ccccc3C)ns2)cc1C [Example 72] | 1.89^[a] | –
CCN(C)C=Nc1cc(C)c(Oc2nc(Cc3ccc(-c4ccccc4)cc3)ns2)cc1C [Example 73] | 2.8^[a] | –
CCN(C)C=Nc1cc(C)c(Oc2nc(Cc3c(F)cccc3Cl)ns2)cc1C [Example 74] | 2.33^[a] | –

Compound | log p [2] | further results
CCN(C)C=Nc1cc(C)c(Oc2nc(Cc3ccc(OC)cc3)ns2)cc1C [Example 75] | 2.98^[a] | –
Cc1cc(Oc2nc(Cc3c(F)cccc3Cl)ns2)c(C)cc1N=CN1CCCCC1 [Example 77] | 2.12^[a] | –
CCN(C)C=Nc1cc(C)c(Oc2nc(Cc3cccc(F)c3)ns2)cc1C [Example 78] | 1.87^[a] | –
CCN(C)C=Nc1cc(C)c(Oc2nc(Cc3ccc(Oc4ccccc4)cc3)ns2)cc1C [Example 80] | 2.72^[a] | –
Cc1ccc(Br)cc1Cc1nsc(Oc2cc(C)c(N=CN3CCCCC3)cc2C)n1 [Example 83] | 2.79^[a] | –
Cc1cc(Oc2nc(Cc3cc(F)ccc3F)ns2)c(C)cc1N=CN1CCCCC1 [Example 84] | 2.4^[a] | –
Cc1cc(Oc2nc(Cc3c(Cl)cccc3Cl)ns2)c(C)cc1N=CN1CCCCC1 [Example 86] | 2.6^[a] | –
Cc1cc(Oc2nc(Cc3ccc(SC(F)(F)F)cc3)ns2)c(C)cc1N=CN1CCCCC1 [Example 88] | 2.67^[a] | –
CCOc1ccc(Cc2nsc(Oc3cc(C)c(N=CN(C)CC)cc3C)n2)cc1 [Example 89] | 2.06^[a] | –
Cc1cc(Oc2nc(Cc3cccc(Cl)c3Cl)ns2)c(C)cc1N=CN1CCCCC1 [Example 93] | 2.38^[a] | –
CCN(C)C=Nc1cc(C)c(Oc2nc(Cc3ccc(F)c(C(F)(F)F)c3)ns2)cc1C [Example 94] | 2.24^[a] | –
CCN(C)C=Nc1cc(Cl)c(Oc2nc(Cc3ccc(SC(F)(F)F)cc3)ns2)cc1C [Example 95] | 2.51^[a] | –
CCN(C)C=Nc1cc(C)c(Oc2nc(Cc3cccc(Cl)c3Cl)ns2)cc1C [Example 96] | 2.21^[a] | –
CCN(C)C=Nc1cc(C)c(Oc2nc(Cc3ccc4ccccc4c3)ns2)cc1C [Example 97] | 2.22^[a] | –
CCN(C)C=Nc1cc(C)c(Oc2nc(Cc3ccccc3F)ns2)cc1C [Example 99] | 2.12^[a] | –
CCN(C)C=Nc1cc(C)c(Oc2nc(Cc3ccccc3Br)ns2)cc1C [Example 100] | 2.32^[a] | –
CCOCC(NC=Nc1cc(C)c(Oc2nc(Cc3ccc(OC(F)(F)F)cc3)ns2)cc1C)C1CC1 (stereo not shown) [Example 101] | 2.85^[a] | –
CCN(C)C=Nc1cc(C)c(Oc2nc(Cc3ccc(SC(F)(F)F)cc3)ns2)cc1C [Example 102] | 2.78^[a] | –
Cc1ccc(Cc2nsc(Oc3cc(C)c(N=CN4CCCCC4)cc3C)n2)c([N+](=O)[O-])c1 [Example 103] | 2.44^[a] | –

Further lines, with some results ahead:

log p [2] | Compound | further results
2.05^[a] | Cc1cc(Oc2nc(Cc3ccc(F)cc3)ns2)c(C)cc1N=CN1CCCCC1 [Example 57] | –
2.71^[a] | Cc1cc(Oc2nc(Cc3ccc(OC(F)(F)F)cc3)ns2)c(C)cc1N=CN1CCCCC1 [Example 58] | –
2.23^[a] | Cc1cc(Oc2nc(Cc3cccc(Br)c3)ns2)c(C)cc1N=CN1CCCCC1 [Example 59] | –
2.43^[a] | Cc1cc(Oc2nc(Cc3ccccc3Cl)ns2)c(C)cc1N=CN1CCCCC1 [Example 62] | –
2.39^[a] | Cc1cc(Oc2nc(Cc3ccc(F)c(F)c3)ns2)c(C)cc1N=CN1CCCCC1 [Example 63] | –
2.06^[a] | Cc1ccccc1Cc1nsc(Oc2cc(C)c(N=CN3CCCCC3)cc2C)n1 [Example 68] | –
2.45^[a] | Cc1cc(Oc2nc(Cc3ccc(-c4ccccc4)cc3)ns2)c(C)cc1N=CN1CCCCC1 [Example 70] | –
1.9^[a] | COc1ccc(Cc2nsc(Oc3cc(C)c(N=CN4CCCCC4)cc3C)n2)cc1 [Example 76] | –
2.66^[a] | Cc1cc(Oc2nc(Cc3ccc(C(F)(F)F)cc3)ns2)c(C)cc1N=CN1CCCCC1 [Example 79] | –
2.25^[a] | Cc1cc(Oc2nc(Cc3cccc(F)c3)ns2)c(C)cc1N=CN1CCCCC1 [Example 81] | –
2.06^[a] | Cc1cc(Oc2nc(Cc3ccc(C#N)cc3)ns2)c(C)cc1N=CN1CCCCC1 [Example 82] | –
2.85^[a] | Cc1cc(Oc2nc(Cc3ccc(Oc4ccccc4)cc3)ns2)c(C)cc1N=CN1CCCCC1 [Example 85] | –
2.17^[a] | COc1cccc(Cc2nsc(Oc3cc(C)c(N=CN4CCCCC4)cc3C)n2)c1 [Example 87] | –
2.23^[a] | CCOc1ccc(Cc2nsc(Oc3cc(C)c(N=CN4CCCCC4)cc3C)n2)cc1 [Example 90] | –
2.44^[a] | Cc1cc(Oc2nc(Cc3ccc(F)c(C(F)(F)F)c3)ns2)c(C)cc1N=CN1CCCCC1 [Example 91] | –
2.43^[a] | Cc1cc(Oc2nc(Cc3ccc4ccccc4c3)ns2)c(C)cc1N=CN1CCCCC1 [Example 92] | –
2.36^[a] | Cc1cc(Oc2nc(Cc3ccccc3Br)ns2)c(C)cc1N=CN1CCCCC1 [Example 98] | –
